# Measured values as given in patent publication US20250296959A1, “B7-H3 TARGETING PEPTIDES AND CONSTRUCTS THEREOF” (Mariana Oncology Inc., priority 2024, published 2025).
# Where two headings read alike, the source gives them in different places. Starred links: 1 amine or outer side, 2 acyl side, 3 side chain; linkers in the order of their positions; H or OH if unused. Positions of bridges follow the written chain, without caps; N, C: chain ends. Non-standard residues stand in square brackets, D forms with d. Residues, ends and D or L forms follow the SMILES beside them. *: point of attachment. Ala(piperidin-4-yl) = O=C([C@H](CC1CCN([*:3])CC1)N[*:1])[*:2]; DOTA = O=C(O)CN1CCN(CC(=O)O)CCN(CC(=O)*)CCN(CC(=O)O)CC1; X5 = O=C(O)CC1CCN(CC(=O)O)CCN(CC(=O)O)CCN(CC(=O)*)CC1; NH(CH2CH2O)4CH2CO = O=C(COCCOCCOCCOCCN[*:1])[*:2]; Tyr(SO2F) = N[C@@H](Cc1ccc(OS(=O)(=O)F)cc1)C(=O)O; Trp(5-F) = N[C@@H](Cc1c[nH]c2ccc(F)cc12)C(=O)O; X11 = O=C(CCCc1ccc(I)cc1)NCCOCCOCCOCCOCC(=O)*; PEG8 = NCCOCCOCCOCCOCCOCCOCCOCCOCCC(=O)O; Ala(4-THP) = N[C@@H](CC1CCOCC1)C(=O)O; Val(3-OH) = CC(C)(O)[C@H](N)C(=O)O; Tle = CC(C)(C)[C@H](N)C(=O)O; hLeu = CC(C)CC[C@H](N)C(=O)O; Nle = CCCC[C@H](N)C(=O)O
# Molecular target: T1, human 4lg B7-H3 (Homo sapiens, UniProt Q5ZPR3)
# T1 sequence (Q5ZPR3 29-534): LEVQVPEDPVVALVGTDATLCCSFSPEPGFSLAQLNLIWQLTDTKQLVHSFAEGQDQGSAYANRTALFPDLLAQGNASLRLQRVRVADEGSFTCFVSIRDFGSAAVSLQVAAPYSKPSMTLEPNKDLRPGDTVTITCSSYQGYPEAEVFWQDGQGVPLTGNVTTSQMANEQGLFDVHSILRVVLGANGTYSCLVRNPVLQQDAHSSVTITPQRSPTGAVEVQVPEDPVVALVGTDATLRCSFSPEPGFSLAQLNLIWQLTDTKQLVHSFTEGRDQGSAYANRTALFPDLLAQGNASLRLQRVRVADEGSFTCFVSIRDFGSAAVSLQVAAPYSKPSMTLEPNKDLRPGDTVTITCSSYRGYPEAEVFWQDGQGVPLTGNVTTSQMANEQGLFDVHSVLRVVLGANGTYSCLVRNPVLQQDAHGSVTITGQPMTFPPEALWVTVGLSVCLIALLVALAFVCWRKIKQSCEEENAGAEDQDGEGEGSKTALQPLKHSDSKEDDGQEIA
# Experiment: Affinity determination by surface plasmon resonance (SPR) to 4Ig B7-H3
# [1] = SPR KD—37° C., 4Ig B7-H3, 37° C. flow cell temperature
# [2] = SPR KD—25° C., 4Ig B7-H3, 25° C. flow cell temperature
SMILES,Kd [1] [nM],Kd [2] [nM],further results
"CC(=O)N[C@@H](CCC(C)C)C(=O)N[C@@H](Cc1ccc(O)cc1)C(=O)N[C@H]1CSSC[C@@H](C(=O)N[C@@H](Cc2c[nH]c3ccc(F)cc23)C(=O)N[C@@H](Cc2ccccc2)C(=O)N[C@H](C(=O)N[C@H](CCCCNC(=O)CN2CCN(CC(=O)O)CCN(CC(=O)O)CCN(CC(=O)O)CC2)C(=O)O)C(C)(C)O)NC(=O)[C@H](Cc2ccc(O)cc2)NC(=O)[C@H](C(C)C)NC(=O)[C@H](CC(=O)O)NC(=O)[C@H](CC2CCC(O)CC2)NC(=O)[C@H](CC2CCNCC2)NC(=O)CNC(=O)[C@H](C(C)(C)C)NC1=O (single isomer, unassigned) [compound 479, Ac-hLeu-Y-C-Tbg-G-PipAla-4OHCha(pk1)-D-V-Y-C-5FW-F-hydroxyVal-dLys(DOTA)-COOH]",< 1,–,–
"CC(=O)N[C@@H](CCC(C)C)C(=O)N[C@@H](Cc1ccc(O)cc1)C(=O)N[C@H]1CSSC[C@@H](C(=O)N[C@@H](Cc2c[nH]c3ccc(F)cc23)C(=O)N[C@@H](Cc2ccccc2)C(=O)N[C@H](C(=O)N[C@H](CCCCNC(=O)CN2CCN(CC(=O)O)CCN(CC(=O)O)CCN(CC(=O)O)CC2)C(=O)O)C(C)(C)O)NC(=O)[C@H](Cc2ccc(O)cc2)NC(=O)[C@H](C(C)C)NC(=O)[C@H](CC(=O)O)NC(=O)[C@H](CC2CCC(O)CC2)NC(=O)[C@H](CC2CCNCC2)NC(=O)CNC(=O)[C@H](C(C)(C)C)NC1=O (single isomer, unassigned) [compound 480, Ac-hLeu-Y-C-Tbg-G-PipAla-4OHCha(pk2)-D-V-Y-C-5FW-F-hydroxyVal-dLys(DOTA)-COOH]",–,–,"Kd (read-out: SPR KD—37° C., 4Ig B7-H3, 37° C. flow cell temperature): < 1 nM"
"CC(C)CC[C@H](NC(=O)COCCOCCOCCOCCNC(=O)CN1CCN(CC(=O)O)CCN(CC(=O)O)CCN(CC(=O)O)CC1)C(=O)N[C@@H](Cc1ccc(O)cc1)C(=O)N[C@H]1CSSC[C@@H](C(=O)N[C@@H](Cc2c[nH]c3ccc(F)cc23)C(=O)N[C@@H](Cc2ccccc2)C(=O)N2CCC[C@H]2C(=O)O)NC(=O)[C@H](Cc2ccc(O)cc2)NC(=O)[C@H](C(C)C)NC(=O)[C@H](CC(=O)O)NC(=O)[C@H](CC2CCOCC2)NC(=O)[C@H](CCCCN)NC(=O)CNC(=O)[C@H](C(C)(C)C)NC1=O [Cpd #306, DOTA-PEG4-hLeu-Y-C-Tbg-G-K-ThpA-D-V-Y-C-5FW-F-Pro-COOH] ({DOTA}-[NH(CH2CH2O)4CH2CO][hLeu]YC[Tle]GK[Ala(4-THP)]DVYC[Trp(5-F)]FP-OH; disulfide 4-12)",–,10 to 100,–
"CC(=O)N[C@@H](CCC(C)C)C(=O)N[C@@H](Cc1ccc(O)cc1)C(=O)N[C@H]1CSSC[C@@H](C(=O)N[C@@H](Cc2c[nH]c3ccc(F)cc23)C(=O)N[C@@H](Cc2ccccc2)C(=O)N[C@H](C(=O)N[C@H](CCCCNC(=O)CN2CCN(CC(=O)O)CCN(CC(=O)O)CCN(CC(=O)O)CC2)C(=O)O)C(C)(C)O)NC(=O)[C@H](Cc2ccc(O)cc2)NC(=O)[C@H](C(C)C)NC(=O)[C@H](CC(=O)O)NC(=O)[C@H](CC2CCOCC2)NC(=O)[C@H](CC2CCN(C(=O)COCCOCCOCCOCCNC(=O)CCCc3ccc(I)cc3)CC2)NC(=O)CNC(=O)[C@H](C(C)(C)C)NC1=O [Cpd #364, Ac-hLeu-Y-C-Tbg-G-Pip(PEG4-AB)Ala-ThpA-D-V-Y-C-5FW-F-hydroxyVal-dLys(DOTA)-COOH] (Ac-[hLeu]YC[Tle]G[Ala(piperidin-4-yl)](X11)[Ala(4-THP)]DVYC[Trp(5-F)]F[Val(3-OH)][dK](DOTA)-OH; disulfide 3-11)",1 to 10,–,–
"CC(=O)N[C@@H](CCC(C)C)C(=O)N[C@@H](Cc1ccc(O)cc1)C(=O)N[C@H]1CSSC[C@@H](C(=O)N[C@@H](Cc2c[nH]c3ccc(F)cc23)C(=O)N[C@@H](Cc2ccccc2)C(=O)N[C@H](C(=O)N[C@H](CCCCNC(=O)CN2CCN(CC(=O)O)CCN(CC(=O)O)CCN(CC(=O)O)CC2)C(=O)O)C(C)(C)O)NC(=O)[C@H](Cc2ccc(OS(=O)(=O)F)cc2)NC(=O)[C@H](C(C)C)NC(=O)[C@H](CC(=O)O)NC(=O)[C@H](CC2CCOCC2)NC(=O)[C@H](CCCCN)NC(=O)CNC(=O)[C@H](C(C)(C)C)NC1=O [Cpd #389, Ac-hLeu-Y-C-Tbg-G-K-ThpA-D-V-FSY-C-5FW-F-hydroxyVal-dLys(DOTA)-COOH] (Ac-[hLeu]YC[Tle]GK[Ala(4-THP)]DV[Tyr(SO2F)]C[Trp(5-F)]F[Val(3-OH)][dK](DOTA)-OH; disulfide 3-11)",–,–,Kd: < 1 nM
"CC(C)CC[C@H](NC(=O)CCOCCOCCOCCOCCOCCOCCOCCOCCNC(=O)CN1CCN(CC(=O)O)CCN(CC(=O)O)CCN(CC(=O)O)CC1)C(=O)N[C@@H](Cc1ccc(O)cc1)C(=O)N[C@H]1CSSC[C@@H](C(=O)N[C@@H](Cc2c[nH]c3ccc(F)cc23)C(=O)N[C@@H](Cc2ccccc2)C(=O)N[C@H](C(N)=O)C(C)(C)O)NC(=O)[C@H](Cc2ccc(O)cc2)NC(=O)[C@H](C(C)C)NC(=O)[C@H](CC(=O)O)NC(=O)[C@H](CC2CCOCC2)NC(=O)[C@H](CCCCN)NC(=O)CNC(=O)[C@H](C(C)(C)C)NC1=O [Cpd #391, DOTA-PEG8-hLeu-Y-C-Tbg-G-K-ThpA-D-V-Y-C-5FW-F-hydroxyVal-CONH2] ({DOTA-PEG8}-[hLeu]YC[Tle]GK[Ala(4-THP)]DVYC[Trp(5-F)]F[Val(3-OH)]-NH2; disulfide 3-11)",1 to 10,–,–

# Further lines, with some results ahead:
Kd [1] [nM],Kd [2] [nM],SMILES,further results
10 to 100,–,"CCCC[C@H](NC(C)=O)C(=O)N[C@@H](Cc1ccc(O)cc1)C(=O)N[C@H]1CSSC[C@@H](C(=O)N[C@@H](Cc2c[nH]c3ccccc23)C(=O)N[C@@H](Cc2ccccc2)C(N)=O)NC(=O)[C@H](Cc2ccc(O)cc2)NC(=O)[C@H](C(C)C)NC(=O)[C@H](CC(=O)O)NC(=O)[C@H](Cc2ccc(O)cc2)NC(=O)[C@H](CCCCN)NC(=O)CNC(=O)[C@H](C(C)C)NC1=O [Cpd #7, Ac-Nle-Y-C-V-G-K-Y-D-V-Y-C-W-F-CONH2] (Ac-[Nle]YCVGKYDVYCWF-NH2; disulfide 3-11)",–
1 to 10,1 to 10,"CCCC[C@H](NC(C)=O)C(=O)N[C@@H](Cc1ccc(O)cc1)C(=O)N[C@H]1CSSC[C@@H](C(=O)N[C@@H](Cc2c[nH]c3ccccc23)C(=O)N[C@@H](Cc2ccccc2)C(=O)N[C@H](C(=O)N[C@H](CCCCNC(=O)CN2CCC(CC(=O)O)CCN(CC(=O)O)CCN(CC(=O)O)CC2)C(N)=O)[C@@H](C)O)NC(=O)[C@H](Cc2ccc(O)cc2)NC(=O)[C@H](C(C)C)NC(=O)[C@H](CC(=O)O)NC(=O)[C@H](Cc2ccc(O)cc2)NC(=O)[C@H](CCCCN)NC(=O)CNC(=O)[C@H](C(C)C)NC1=O (stereo partly drawn) [Cpd #27, Ac-Nle-Y-C-V-G-K-Y-D-V-Y-C-W-F-Thr-dLys(DOTA)-CONH2] (Ac-[Nle]YCVGKYDVYCWFT[dK](X5)-NH2; disulfide 3-11)",–
–,1 to 10,"CC(=O)N[C@@H](CCC(C)C)C(=O)N[C@@H](Cc1ccc(O)cc1)C(=O)N[C@H]1CSSC[C@@H](C(=O)N[C@@H](Cc2c[nH]c3ccccc23)C(=O)N[C@@H](Cc2ccccc2)C(=O)N[C@H](C(=O)N[C@H](CCCCNC(=O)CN2CCN(CC(=O)O)CCN(CC(=O)O)CCN(CC(=O)O)CC2)C(N)=O)[C@@H](C)O)NC(=O)[C@H](Cc2ccc(O)cc2)NC(=O)[C@H](C(C)C)NC(=O)[C@H](CC(=O)O)NC(=O)[C@H](Cc2ccc(O)cc2)NC(=O)[C@H](CCCCN)NC(=O)CNC(=O)[C@H](C(C)C)NC1=O [Cpd #67, Ac-hLeu-Y-C-V-G-K-Y-D-V-Y-C-W-F-Thr-dLys(DOTA)-CONH2] (Ac-[hLeu]YCVGKYDVYCWFT[dK](DOTA)-NH2; disulfide 3-11)",–
